Patent US7223865B2, “Chromogenic compounds, and use thereof as enzyme substrates” (Biomerieux, priority 2003, dated 2007)

Experiments:
Format in all cases: cell-based
Candida albicans = test: L-alanine-aminopeptidase activity on gelled medium, Example 1; conditions: 0.3 g/l, 24 hours
Protocol: (§1) A gelled medium comprising L-alanyl-9-(4-amino-styryl)acridine (hereinafter referred to as L-Ala-4-ASA) or L-alanyl-aminophenylacridine (hereinafter referred to as L-Ala-APA) is prepared as follows: 46.37 g of Columbia agar are added to 1 liter of distilled water and then autoclaved. This reaction medium is separated into two media of equivalent volume. Each of these media comprises, respectively: 0.3 g/l of L-Ala-4-ASA provided by means of the stock solution in DMSO, and 0.3 g/l of L-Ala-APA also provided by means of a stock solution in DMSO.
(§2) Microorganisms derived from the applicant's collection were seeded onto each of the media, by delimitation as three dials, using a suspension at 0.5 McFarland. The dishes were incubated at 37° C. for 24 hours. The colonies formed were examined visually after incubation for 24 hours. The color of these colonies was noted before and after addition of a drop of hydrochloric acid.

Citrobacter koseri = test: as above; conditions: 0.3 g/l, 24 hours
Protocol: as §1, §2

Enterobacter cloacae = test: as above; conditions: 0.3 g/l, 24 hours
Protocol: as §1, §2

Enterococcus faecalis = test: as above; conditions: 0.3 g/l, 24 hours
Protocol: as §1, §2

Escherichia coli = test: as above; conditions: 0.3 g/l, 24 hours
Protocol: as §1, §2

Klebsiella pneumoniae = test: as above; conditions: 0.3 g/l, 24 hours
Protocol: as §1, §2

Listeria innocua = test: as above; conditions: 0.3 g/l, 24 hours
Protocol: as §1, §2

Proteus mirabilis = test: as above; conditions: 0.3 g/l, 24 hours
Protocol: as §1, §2

Staphylococcus aureus = test: as above; conditions: 0.3 g/l, 24 hours
Protocol: as §1, §2

Streptococcus agalactiae = test: as above; conditions: 0.3 g/l, 24 hours
Protocol: as §1, §2

[1] = tested on: Burkholderia cepacia (NCTC 10743); test: pyroglutamine-aminopeptidase activity on gelled medium, Example 9; set-up: key to growth: ++ means good growth; + means moderate growth; +/− means poor growth; NG means no growth
Protocol: (§3) A gelled medium comprising this substrate is prepared as follows: 30 mg of each substrate are dissolved (heating) in 10 ml of sterile distilled water. Ten ml of this solution are then added to 90 ml of Columbia agar kept molten at 50° C.
(§4) Various strains of microorganisms derived from the NCTC collection (National Collection of Type Cultures, Colindale, UK) were seeded onto the media thus obtained according to the multipoint inoculation described in example 8 above.
(§5) The colonies formed were examined visually after incubation for 24 h and 48 h. The color and the growth of these colonies were noted.

[2] = tested on: Enterobacter cloacae (NCTC 11936); test: as above; set-up: key to growth: ++ means good growth; + means moderate growth; +/− means poor growth; NG means no growth
Protocol: as §3, §4, §5

[3] = tested on: Escherichia coli (NCTC 14018); test: as above; set-up: key to growth: ++ means good growth; + means moderate growth; +/− means poor growth; NG means no growth
Protocol: as §3, §4, §5

[4] = tested on: Escherichia coli 0157 (NCTC 12079); test: as above; set-up: key to growth: ++ means good growth; + means moderate growth; +/− means poor growth; NG means no growth
Protocol: as §3, §4, §5

[5] = tested on: Klebsiella pneumonia (NCTC 10896); test: as above; set-up: key to growth: ++ means good growth; + means moderate growth; +/− means poor growth; NG means no growth
Protocol: as §3, §4, §5

[6] = tested on: Pseudomonas aeruginosa (NCTC 10662); test: as above; set-up: key to growth: ++ means good growth; + means moderate growth; +/− means poor growth; NG means no growth
Protocol: as §3, §4, §5

[7] = tested on: Salmonella poona (NCTC 4840); test: as above; set-up: key to growth: ++ means good growth; + means moderate growth; +/− means poor growth; NG means no growth
Protocol: as §3, §4, §5

[8] = tested on: Salmonella typhimurium (NCTC 74); test: as above; set-up: key to growth: ++ means good growth; + means moderate growth; +/− means poor growth; NG means no growth
Protocol: as §3, §4, §5

[9] = tested on: Serratia marcescens (NCTC 10211); test: as above; set-up: key to growth: ++ means good growth; + means moderate growth; +/− means poor growth; NG means no growth
Protocol: as §3, §4, §5

[10] = tested on: Shigella sonnei (NCTC 9774); test: as above; set-up: key to growth: ++ means good growth; + means moderate growth; +/− means poor growth; NG means no growth
Protocol: as §3, §4, §5

For `C[C@H](N)C(=O)Nc1ccc(C=Cc2c3ccccc3nc3ccccc23)cc1` [L-Ala-4-ASA, L-alanyl-9-(4-aminostyryl)acridine], the color of colonies (Candida albicans; with HCl) was “colorless”, the color of colonies (Candida albicans; without HCl) was “colorless” and the color of colonies (Citrobacter koseri; with HCl) was “gray-mauve”. For the same molecule, the color of colonies (Citrobacter koseri; without HCl) was “colorless”, the color of colonies (Enterobacter cloacae; with HCl) was “gray-mauve” and the color of colonies (Enterobacter cloacae; without HCl) was “colorless”. The color of colonies (Enterococcus faecalis; with HCl) was “colorless”, the color of colonies (Enterococcus faecalis; without HCl) was “colorless” and the color of colonies (Escherichia coli; with HCl) was “gray-mauve”. The color of colonies (Escherichia coli; without HCl) was “colorless”, the color of colonies (Klebsiella pneumoniae; with HCl) was “gray-mauve” and the color of colonies (Klebsiella pneumoniae; without HCl) was “colorless”. The color of colonies (Listeria innocua; with HCl) was “colorless”, the color of colonies (Listeria innocua; without HCl) was “colorless” and the color of colonies (Proteus mirabilis; with HCl) was “gray-mauve”. The color of colonies (Proteus mirabilis; without HCl) was “colorless”, the color of colonies (Staphylococcus aureus; with HCl) was “colorless” and the color of colonies (Staphylococcus aureus; without HCl) was “colorless”. The color of colonies (Streptococcus agalactiae; with HCl) was “colorless” and the color of colonies (Streptococcus agalactiae; without HCl) was “colorless”.

With `C[C@H](N)C(=O)Nc1ccc(-c2c3ccccc3nc3ccccc23)cc1` [L-Ala-APA] the color of colonies (Candida albicans; with HCl) was “Colorless”, the color of colonies (Candida albicans; without HCl) was “colorless” and the color of colonies (Citrobacter koseri; with HCl) was “mauve”. For the same molecule, the color of colonies (Citrobacter koseri; without HCl) was “colorless”, the color of colonies (Enterobacter cloacae; with HCl) was “mauve” and the color of colonies (Enterobacter cloacae; without HCl) was “colorless”. The color of colonies (Enterococcus faecalis; with HCl) was “colorless”, the color of colonies (Enterococcus faecalis; without HCl) was “colorless” and the color of colonies (Escherichia coli; with HCl) was “pale mauve”. For the same molecule, the color of colonies (Escherichia coli; without HCl) was “colorless”, the color of colonies (Klebsiella pneumoniae; with HCl) was “mauve” and the color of colonies (Klebsiella pneumoniae; without HCl) was “colorless”. For the same molecule, the color of colonies (Listeria innocua; with HCl) was “colorless”, the color of colonies (Listeria innocua; without HCl) was “colorless” and the color of colonies (Proteus mirabilis; with HCl) was “very pale-”. For the same molecule, the color of colonies (Proteus mirabilis; without HCl) was “colorless”, the color of colonies (Staphylococcus aureus; with HCl) was “colorless” and the color of colonies (Staphylococcus aureus; without HCl) was “colorless”. For the same molecule, the color of colonies (Streptococcus agalactiae; with HCl) was “colorless” and the color of colonies (Streptococcus agalactiae; without HCl) was “colorless”.

`C[n+]1c2ccccc2c(-c2ccc(NC(=O)C3CCC(=O)N3)cc2)c2ccccc21.[Cl-]` (centres unmarked) [PG-4-AP-10-MA, pyroglutamyl-9-(4-aminophenyl)-10-methyl-acridine] was tested, and the color of colonies ([1]; 24 h) was “Colorless”, the growth ([1]; 24 h) was “++” and the color of colonies ([1]; 48 h) was “Pale orange”. The growth ([1]; 48 h) was “++”, the color of colonies ([2]; 24 h) was “Colorless” and the growth ([2]; 24 h) was “++”. For the same molecule, the color of colonies ([2]; 48 h) was “Pale orange”, the growth ([2]; 48 h) was “++” and the color of colonies ([3]; 24 h) was “Colorless”. The growth ([3]; 24 h) was “++”, the color of colonies ([3]; 48 h) was “Colorless” and the growth ([3]; 48 h) was “++”. The color of colonies ([4]; 24 h) was “Colorless”, the growth ([4]; 24 h) was “++” and the color of colonies ([4]; 48 h) was “Colorless”. The growth ([4]; 48 h) was “++”, the color of colonies ([5]; 24 h) was “Colorless” and the growth ([5]; 24 h) was “++”. For the same molecule, the color of colonies ([5]; 48 h) was “Pale orange”, the growth ([5]; 48 h) was “++” and the color of colonies ([6]; 24 h) was “Colorless”. For the same molecule, the growth ([6]; 24 h) was “++”, the color of colonies ([6]; 48 h) was “Orange” and the growth ([6]; 48 h) was “++”. The color of colonies ([7]; 24 h) was “Colorless”, the growth ([7]; 24 h) was “++” and the color of colonies ([7]; 48 h) was “Colorless”. For the same molecule, the growth ([7]; 48 h) was “++”, the color of colonies ([8]; 24 h) was “Colorless” and the growth ([8]; 24 h) was “++”. The color of colonies ([8]; 48 h) was “Colorless”, the growth ([8]; 48 h) was “++” and the color of colonies ([9]; 24 h) was “Colorless”. For the same molecule, the growth ([9]; 24 h) was “++”, the color of colonies ([9]; 48 h) was “Pale orange” and the growth ([9]; 48 h) was “++”. The color of colonies ([10]; 24 h) was “Colorless”, the growth ([10]; 24 h) was “++” and the color of colonies ([10]; 48 h) was “Colorless”. The growth ([10]; 48 h) was “++”.
